US20240116946A1 (Gilead Sciences, Inc., priority 2022, published 2024)
Read-outs that look alike come from different tables or passages of the source.

What was measured:
[1] = target: recombinant SARS-CoV-2 Main protease (Mpro) (Severe acute respiratory syndrome coronavirus 2 (2019-nCoV) (SARS-CoV-2), UniProt P0DTD1); experiment: Cov Mpro Biochemical IC50 Assay; conditions: recombinant SARS-CoV-2 Mpro 7.5 nM, fluorogenic peptide substrate 40 μM; read-out: MPro IC50
SARS-CoV-2-NLuc = experiment: microbe, parasite or virus in culture; type: cell-based, SARS Coronavirus 2
[2] = Severe acute respiratory syndrome coronavirus, 48 h, read-out: MPro EC50
[3] = Severe acute respiratory syndrome coronavirus, 48 h; read-out: MPro EC50

SMILES	IC50 [1] [nM]	EC50 (SARS-CoV-2-NLuc; [2]) [nM]	EC50 (SARS-CoV-2-NLuc; read-out: MPro EC50) [nM]	EC50 (SARS-CoV-2-NLuc; [3]) [nM]
COc1ccc(C#N)c(-c2cc3[nH]c(=O)n(-c4cncc5ccccc45)c(=O)c3s2)c1 [Example 532, 2-(3-(isoquinolin-4-yl)-2,4-dioxo-1,2,3,4-tetrahydrothieno[3,2-d]pyrimidin-6-yl)-4-methoxybenzonitrile]	< 2.65	17.4	–	–
N#Cc1cc(F)ccc1-c1cc2[nH]c(=O)n(-c3cncc4ccccc34)c(=O)c2s1 [Example 534]	30.6	80.5	–	–
N#Cc1ccncc1-c1cc2[nH]c(=O)n(-c3cncc4ccccc34)c(=O)c2s1 [Example 535]	39.6	432	–	–
COc1cccc(C#N)c1-c1cc2[nH]c(=O)n(-c3cncc4ccccc34)c(=O)c2s1 [Example 536]	21.2	46.4	–	–
COc1cc(-c2cc3[nH]c(=O)n(-c4cncc5ccccc45)c(=O)c3s2)c(C#N)cc1F [Example 537]	6.15	19.2	–	–
N#Cc1ncccc1-c1cc2[nH]c(=O)n(-c3cncc4ccccc34)c(=O)c2s1 [Example 538]	59.8	826	–	–
COc1ccc(-c2cc3[nH]c(=O)n(-c4cncc5ccccc45)c(=O)c3s2)c(C#N)c1 [Example 539]	141	675	–	–
N#Cc1cc(F)c(F)cc1-c1cc2[nH]c(=O)n(-c3cncc4ccccc34)c(=O)c2s1 [Example 540]	911	> 50000	–	–
COc1cnc(C#N)c(-c2cc3[nH]c(=O)n(-c4cncc5ccccc45)c(=O)c3s2)c1 [Example 541]	17.6	237	–	–
COc1cc(-c2cc3[nH]c(=O)n(-c4cncc5ccccc45)c(=O)c3s2)c(C#N)cn1 [Example 542]	249	1200	–	–
COc1cc(-c2cc3[nH]c(=O)n(-c4cncc5cccnc45)c(=O)c3s2)c(C#N)cc1F [Example 543]	9.91	240	–	–
COc1cc(C#N)c(-c2cc3[nH]c(=O)n(-c4cncc5ccccc45)c(=O)c3s2)cc1OC [Example 544]	16.8	202	–	–
N#Cc1ccc(Cl)c(-c2cc3[nH]c(=O)n(-c4cncc5ccccc45)c(=O)c3s2)c1 [Example 545]	29.4	112	–	–
Cc1ccc(C#N)cc1-c1cc2[nH]c(=O)n(-c3cncc4ccccc34)c(=O)c2s1 [Example 546]	15.4	164	–	–
N#Cc1ccc(F)c(-c2cc3[nH]c(=O)n(-c4cncc5ccccc45)c(=O)c3s2)c1 [Example 547]	170	> 1000	–	–
Cc1cc(Cl)c(-c2cc3[nH]c(=O)n(-c4cncc5ccccc45)c(=O)c3s2)cc1C#N [Example 548]	7.55	114	–	–
COc1cc(-c2cc3[nH]c(=O)n(-c4cncc5ccc(C(C)(C)O)cc45)c(=O)c3s2)c(Cl)cc1F [Example 551, 6-(2-chloro-4-fluoro-5-methoxyphenyl)-3-(6-(2-hydroxypropan-2-yl)isoquinolin-4-yl)thieno[3,2-d]pyrimidine-2,4(1H,3H)-dione]	5.36	23.6	–	–
COc1ccc(Cl)c(-c2cc3[nH]c(=O)n(-c4cncc5ccc(CO)cc45)c(=O)c3s2)c1 [Example 552, 6-(2-chloro-5-methoxyphenyl)-3-(6-(hydroxymethyl)isoquinolin-4-yl)thieno[3,2-d]pyrimidine-2,4(1H,3H)-dione]	7.13	12.4	–	–
COc1cc(-c2cc3[nH]c(=O)n(-c4cncc5cccnc45)c(=O)c3s2)c(Cl)cc1F [Example 553, 6-(2-chloro-4-fluoro-5-methoxy-phenyl)-3-(1,6-naphthyridin-8-yl)-1H-thieno[3,2-d]pyrimidine-2,4-dione]	7.58	12	–	–
Cc1cccc2cncc(-n3c(=O)[nH]c4cc(-c5ccccc5Cl)sc4c3=O)c12 [Example 558, 6-(2-chlorophenyl)-3-(5-methylisoquinolin-4-yl)thieno[3,2-d]pyrimidine-2,4(1H,3H)-dione]	3.39	17.5	–	–
COc1ccc(Cl)c(-c2cc3[nH]c(=O)n(-c4cncc5cccc(C)c45)c(=O)c3s2)c1 [Example 559]	6.23	9.19	–	–
COc1cc(-c2cc3[nH]c(=O)n(-c4cncc5cccc(C)c45)c(=O)c3s2)c(Cl)cc1F [Example 560]	< 2.54	6.1	–	–
O=c1[nH]c2cc(-c3c(Cl)cccc3CC3CCOCC3)sc2c(=O)n1-c1cncc2ccccc12 [Example 561, 6-[2-chloro-6-(tetrahydropyran-4-ylmethyl)phenyl]-3-(4-isoquinolyl)-1H-thieno[3,2-d]pyrimidine-2,4-dione]	142	177	–	–
COc1ccc2cncc(-n3c(=O)[nH]c4cc(-c5c(Cl)cccc5-c5cc(C)c6ncnn6c5)sc4c3=O)c2c1 [Example 562, 6-[2-chloro-6-(8-methyl-[1,2,4]triazolo[1,5-a]pyridin-6-yl)phenyl]-3-(6-methoxy-4-isoquinolyl)-1H-thieno[3,2-d]pyrimidine-2,4-dione]	< 2.54	5.06	–	–

SMILES	IC50 [1] [nM]	EC50 (SARS-CoV-2-NLuc; [2]) [nM]	EC50 (SARS-CoV-2-NLuc; read-out: MPro EC50) [nM]	EC50 (SARS-CoV-2-NLuc; [3]) [nM]
COc1ccc2cncc(-n3c(=O)[nH]c4cc(-c5c(Cl)cccc5C5=CCOCC5)sc4c3=O)c2c1 [Example 563]	6.96	10	–	–
COc1ccc2cncc(-n3c(=O)[nH]c4cc(-c5c(Cl)cccc5-c5cn6ncnc6c6c5CCC6)sc4c3=O)c2c1 [Example 564]	14.6	52.5	–	–
COc1ccc(Cl)c(-c2cc3[nH]c(=O)n(-c4cncc5ccc(C(=O)N6CCOCC6)cc45)c(=O)c3s2)c1 [Example 566, 6-(2-chloro-5-methoxy-phenyl)-3-[6-(morpholine-4-carbonyl)-4-isoquinolyl]-1H-thieno[3,2-d]pyrimidine-2,4-dione]	9.83	20.8	–	–
Cn1nncc1-c1cccc(Cl)c1-c1ccc2c(=O)n(-c3cncc4ccccc34)c(=O)[nH]c2c1 [Example 567, 7-[2-chloro-6-(3-methyltriazol-4-yl)phenyl]-3-(4-isoquinolyl)-1H-quinazoline-2,4-dione]	50.9	–	228	–
COc1ccc(-c2cc(C)c3ncnn3c2)c(-c2ccc3c(=O)n(-c4cncc5ccccc45)c(=O)[nH]c3c2)c1 [Example 568, 3-(4-isoquinolyl)-7-[5-methoxy-2-(8-methyl-[1,2,4]triazolo[1,5-a]pyridin-6-yl)phenyl]-1H-quinazoline-2,4-dione]	5670	2640	–	–
COc1ccc(Cl)c(-c2cc3[nH]c(=O)n(-c4cncc5ccc(N6CCOCC6=O)cc45)c(=O)c3s2)c1 [Example 573, 6-(2-chloro-5-methoxyphenyl)-3-(6-(3-oxomorpholino)isoquinolin-4-yl)thieno[3,2-d]pyrimidine-2,4(1H,3H)-dione]	3.26	–	–	20.1
COc1ccc(Cl)c(-c2cc3[nH]c(=O)n(-c4cncc5ccc(N6C(=O)COC[C@@H]6C)cc45)c(=O)c3s2)c1 [Example 574]	6.37	–	18.5	–
COc1ccc(Cl)c(-c2cc3[nH]c(=O)n(-c4cncc(CCC(=O)N5CCOCC5)c4)c(=O)c3s2)c1 [Example 575, 6-(2-chloro-5-methoxy-phenyl)-3-[5-(3-morpholino-3-oxo-propyl)-3-pyridyl]-1H-thieno[3,2-d]pyrimidine-2,4-dione]	6.66	–	–	235
O=c1[nH]c2cc(-c3ccccc3Cl)sc2c(=O)n1-c1cncc(C(F)(F)F)c1 [Example 576, 6-(2-chlorophenyl)-3-(5-(trifluoromethyl)pyridin-3-yl)thieno[3,2-d]pyrimidine-2,4(1H,3H)-dione]	174	–	–	153
CC(C)(C)c1cncc(-n2c(=O)[nH]c3cc(-c4ccccc4Cl)sc3c2=O)c1 [Example 577]	> 50000	–	–	12100
O=c1[nH]c2cc(-c3ccccc3Cl)ccc2c(=O)n1-c1cncc(C(F)(F)F)c1 [Example 578]	> 50000	–	–	9870
CC(C)(C)c1cncc(-n2c(=O)[nH]c3cc(-c4ccccc4Cl)ccc3c2=O)c1 [Example 579]	> 50000	–	–	42600
COc1ccc(Cl)c(-c2cc3[nH]c(=O)n(-c4cncc5cc(F)ccc45)c(=O)c3s2)c1 [Example 580, 6-(2-chloro-5-methoxyphenyl)-3-(7-fluoroisoquinolin-4-yl)thieno[3,2-d]pyrimidine-2,4(1H,3H)-dione]	7.53	70.9	–	–
COc1ccc(Cl)c(-c2cc3[nH]c(=O)n(-c4cncc5ccc(O)cc45)c(=O)c3s2)c1 [Example 581]	< 2.54	151	–	–
COc1ccc(Cl)c(-c2cc3[nH]c(=O)n(-c4cncc5cnccc45)c(=O)c3s2)c1 [Example 582]	8.83	31.7	–	–
COc1ccc(C#N)c(-c2cc3[nH]c(=O)n(-c4cncc5cnccc45)c(=O)c3s2)c1 [Example 583]	20.9	227	–	–
O=c1[nH]c2cc(-c3ccccc3Cl)sc2c(=O)n1-c1cncc2cnccc12 [Example 584]	12.9	31.9	–	–
COc1ccc(Cl)c(-c2cc3[nH]c(=O)n(-c4cncc5c(F)cccc45)c(=O)c3s2)c1 [Example 585]	10.1	29.3	–	–
COc1ccc(Cl)c(-c2cc3[nH]c(=O)n(-c4cncc5c4OCCC5)c(=O)c3s2)c1 [Example 586]	26.2	54.3	–	–
COc1ccc(C#N)c(-c2cc3[nH]c(=O)n(-c4cncc5c4OCCC5)c(=O)c3s2)c1 [Example 587]	27.9	117	–	–
O=c1[nH]c2cc(-c3ccccc3Cl)sc2c(=O)n1-c1cncc2c1OCCC2 [Example 588]	14.8	47.4	–	–
COc1ccc(C#N)c(-c2cc3[nH]c(=O)n(-c4cncc5ccc(F)cc45)c(=O)c3s2)c1 [Example 589]	5.01	23.7	–	–
O=c1[nH]c2cc(-c3ccccc3Cl)sc2c(=O)n1-c1cncc2cc(Cl)ccc12 [Example 590]	194	299	–	–
